Measured values reported in US20050090433A1 (priority 2002, published 2005).

Assay: Pharmacokinetics and renal excretion in healthy subjects
Conditions: human, in vivo, iv, 1000 mg; for half-life: healthy subjects, single 1000 mg IV
Description: Blood samples were drawn into heparinized tubes and centrifuged. Plasma was separated and stored frozen at −20° C. until time of assay. Plasma and urine samples were assayed for dalbavancin using validated LC/MS/MS methods. […] The peak concentration (Cmax) values were obtained directly from the observed data. The area under the plasma concentration-time curve (AUC) was calculated using the linear trapezoidal rule. Clearance (CL) was computed as dose/AUC. The elimination half life (t1/2) was estimated by linear regression of the log-linear portion of the log concentration versus time curve. Estimates of the volume of distribution (Vz) was calculated using the regression parameters, while the volume of distribution at steady state (Vss) was calculated from the area under the first moment curve (AUMC) multiplied by the dose and divided by AUC. The cumulative amount of dalbavancin excreted in urine was determined as the integrand of the urine excretion rate (AURC). CLR or renal clearance, was calculated as the ratio: CLR=AURC/AUC.

Structure (SMILES): CN[C@H]1C(=O)N[C@@H]2Cc3ccc(cc3)Oc3cc4cc(c3O[C@@H]3O[C@H](C(=O)O)[C@@H](O)[C@H](O)[C@H]3NC(=O)CCCCCCCCC(C)C)Oc3ccc(cc3Cl)[C@@H](O)[C@@H]3NC(=O)[C@H](NC(=O)[C@@H]4NC(=O)[C@@H](NC2=O)c2cc(cc(O)c2Cl)Oc2cc1ccc2O)c1ccc(O)c(c1)-c1c(O[C@H]2O[C@H](CO)[C@@H](O)[C@H](O)[C@@H]2O)cc(O)cc1[C@@H](C(=O)NCCCN(C)C)NC3=O [Dalbavancin]
- AUC (both sexes): 23800 µg·h/mL
- clearance (both sexes): 0.718 mL/min
- Vd (both sexes, Apparent volume of distribution): > 10 L
- CL renal (both sexes, CLR): 0.3 mL/min
- Vd (both sexes, VSS): 11.5 L
- Vd (both sexes, VZ): 16 L
- half-life (both sexes): 9 to 12 days
- half-life (both sexes, mean): 10.7 days
- CL (both): 0.0431 L/h
- CLR (both): 0.0181 L/h
